Results: patent US20190060384A1, “COMPOSITION FOR TREATMENT OR PREVENTION OF LUNG CANCER AND A METHOD THEREFORE” (priority 2017, published 2019)

Key:
[1] = mouse, in vivo, po
Source text: (§1) Day 28; mortality, clinical symptoms, change in body weight, autopsy findings, hematological (14 items; Table 18) and hematochemical (20 items; Table 19) changes, histopathological changes (23 organs: brain cerebrum, cerebellum and bulbar, heart, thymus, lung, testis, epididymis, kidney, adrenal gland, spleen, liver, pancreas, alimentary tract esophagus, fundic portion, pyloric portion, duodenum, jejunum, ileum, cecum, colon and rectum, submandibular lymph node), and changes in content of liver lipid peroxidation and antioxidant defense system glutathione (GSH), and catalase (CAT) and superoxide dismutase (SOD) activities.

[2] = Pharmacokinetics of gefitinib after repeated oral Lonicera flos; format: in vivo, Sprague-Dawley rats; conditions: for concentration at 0.5 h: 0.50 h; for AUC(0-t) / Cmax / Tmax / half-life: po, average
[3] = male, ICR, mouse, in vivo, po, 28 days
Source text: as §1

NCI-H520 cells = assay: MTT cytotoxicity (cell viability)
Source text: Further, in order to observe the effects on tumor-related cachexia, a change in periovarian fat pad weight and a change in serum IL-6 content were observed, the changes in thickness of periovarian fat pad and diameter of adipocytes were each histopathologically observed, and in a tumor mass formed, the immunoreactivities of cleaved caspase-3 and poly(ADPribose) polymerase (PARP) as apoptotic markers, nitrotyrosine (NT) as an inducible nitric oxide synthases (iNOS)-related oxidative stress marker, 4-hydroxynonenal (4-HNE) as a lipid peroxidation marker, CD-31 and Ki-67 as angiogenic and cell proliferation markers, cyclooxygenase-2 (COX-2) as an inflammatory and angiogenic factor, and iNOS and TNF-α as cytokines related to immune activity were each observed by avidin-biotin-peroxidase (ABC)-based immunohistochemical methods.

[4] = test system: NCI-H520 cell xenograft nude mice; assay: NCI-H520 xenograft nude mice: splenic and peritoneal NK cell activity; format: in vivo, athymic nude mice; conditions: vs tumor xenograft control, 35 days
[5] = mouse, in vivo, po; remark: listed apart in the source
Source text: as §1

[6] = test system: NCI-H520 cell xenograft nude mice; assay: NCI-H520 xenograft nude mice: splenic cytokine contents (TNF-α, IL-1β, IL-10); format: in vivo, athymic nude mice
[7] = test system: NCI-H520 non-small cell lung cancer cell xenograft; assay: NCI-H520 xenograft nude mice: tumor volume and tumor weight; format: in vivo, athymic nude mice
Source text: (1) Anticancer effects: Changes in tumor volume, tumor weight, tumor cell volume in a formed mass, and apoptotic cell percentages, and changes in immunoreactivities of caspase-3, PARP, NT, 4-HNE, CD31, Ki-67, COX-2, iNOS, and TNF-α in the formed mass

[8] = male, Sprague-Dawley, rat, plasma, oral, 10 mg/kg, gefitinib 10 mg/kg oral, control (saline) rats
[9] = male, Sprague-Dawley, rat, plasma, oral, gefitinib 10 mg/kg oral after Lonicera flos 300 mg/kg oral 15 days
[10] = male, Sprague-Dawley, rat, plasma, 10 mg/kg, gefitinib 10 mg/kg oral, Control
[11] = male, Sprague-Dawley, rat, plasma, 10 mg/kg, gefitinib 10 mg/kg oral, Lonicera japonica group (15 days pre-treatment)
[12] = male, ICR (CrljOri:CD1[ICR]), 28 day
[13] = NCI-H520 xenograft nude mice, oral once daily 35 days
[14] = vs tumor xenograft control, 35 days

Q: With `COc1cc2ncnc(Nc3ccc(F)c(Cl)c3)c2cc1OCCCN1CCOCC1` [Gefitinib, gefitinib] as the compound, how does the EOS [1] read?
A: 0.36 ± 0.24%

Q: And the HCT [1]?
A: 34.06 ± 2.18a %

Q: And the HGB [1]?
A: 14.87 ± 0.97a g/dl

Q: And the LYM [1]?
A: 90.22 ± 0.91c %

Q: And the MCH [1]?
A: 21.01 ± 1.93 pg

Q: And the MCHC [1]?
A: 42.31 ± 4.13 g/dL

Q: What about the MCV [1] of the same compound?
A: 49.81 ± 3.97 fL

Q: And the MONO [1]?
A: 3.59 ± 0.83a %

Q: What about the NEU [1] of the same compound?
A: 2.95 ± 0.87c %

Q: And the PLT [1]?
A: 760.00 ± 143.30 K/μL

Q: What about the RBC [1] of the same compound?
A: 6.30 ± 0.35c M/μL

Q: What about the RET [1] of the same compound?
A: 0.43 ± 0.37 ea/1000

Q: What about the WBC [1] of the same compound?
A: 7.50 ± 0.49e K/μL

Q: What about the concentration at 0.5 h [2, 8] of the same compound?
A: 0.703 µg/mL

Q: And the concentration at 1 h [2, 8]?
A: 0.805 µg/mL

Q: What about the concentration at 3 h [2, 8] of the same compound?
A: 0.762 µg/mL

Q: And the concentration at 7 h [2, 8]?
A: 0.824 µg/mL

Q: And the concentration at 10 h [2, 8]?
A: 0.439 µg/mL

Q: And the concentration at 24 h [2, 8]?
A: 0.07 µg/mL

Q: What about the concentration at 0.5 h [2, 9] of the same compound?
A: 0.571 µg/mL

Q: And the concentration at 1 h [2, 9]?
A: 0.645 µg/mL

Q: What about the concentration at 3 h [2, 9] of the same compound?
A: 0.531 µg/mL

Q: What about the concentration at 7 h [2, 9] of the same compound?
A: 0.579 µg/mL

Q: What about the concentration at 10 h [2, 9] of the same compound?
A: 0.43 µg/mL

Q: And the concentration at 24 h [2, 9]?
A: 0.053 µg/mL

Q: And the concentration at […] ([2]; male, Sprague-Dawley, rat, plasma, oral, gefitinib 10 mg/kg oral after Lonicera flos 300 mg/kg oral 15 days, […])?
A: 0.274 µg/mL

Q: And the AUC(0-t) [2, 10]?
A: 10.8 µg·h/mL

Q: And the Cmax [2, 10]?
A: 0.921 µg/mL

Q: And the Tmax [2, 10]?
A: 3.55 h

Q: What about the half-life [2, 10] of the same compound?
A: 5.05 h

Q: What about the AUC(0-t) [2, 11] of the same compound?
A: 8.74 µg·h/mL

Q: And the Cmax [2, 11]?
A: 0.736 µg/mL

Q: What about the Tmax [2, 11] of the same compound?
A: 2.89 h

Q: And the half-life [2, 11]?
A: 4.84 h

Q: What about the “time of maximum plasma concentration after administration” value ([2]; orally administered, rats) of the same compound?
A: about 4 hours

Q: What about the “Histopathology: Fundus Normal” value [3] of the same compound?
A: 5/7

Q: And the “Histopathology: Fundus fCV 1+ (local cysts)” value [3]?
A: 2/7

Q: What about the “Histopathology: Liver IF 1+ (inflammatory cell infiltration)” value [3] of the same compound?
A: 0/7

Q: And the “Histopathology: Liver IF-FN 1+ (infiltration with local necrosis)” value [3]?
A: 0/7

Q: And the “Histopathology: Liver IF-FN 2+” value [3]?
A: 1/7

Q: And the “Histopathology: Liver IF-FN 3+” value [3]?
A: 6/7

Q: What about the “Histopathology: Liver Normal” value [3] of the same compound?
A: 0/7

Q: And the “Histopathology: Lung CG 1+ (hyperemia)” value [3]?
A: 1/7

Q: And the “Histopathology: Lung Normal” value [3]?
A: 6/7

Q: What about the “Histopathology: Lymph nodes Normal” value [3] of the same compound?
A: 0/7

Q: What about the “Histopathology: Lymph nodes dHP 1+ (diffused lymphocyte hyperplasia)” value [3] of the same compound?
A: 0/7

Q: What about the “Histopathology: Lymph nodes dHP 2+” value [3] of the same compound?
A: 4/7

Q: What about the “Histopathology: Lymph nodes dHP 3+” value [3] of the same compound?
A: 3/7

Q: And the “Histopathology: Others Normal” value [3]?
A: 7/7

Q: And the “Histopathology: Spleen Normal” value [3]?
A: 0/7

Q: What about the “Histopathology: Spleen rHP 1+ (red pulp lymphocyte hyperplasia)” value [3] of the same compound?
A: 0/7

Q: And the “Histopathology: Spleen rHP 2+” value [3]?
A: 3/7

Q: What about the “Histopathology: Spleen rHP 3+” value [3] of the same compound?
A: 4/7

Q: What about the “change in the viability of NCI-H520 cells vs vehicle control” value (shortened to “change in the viability”) (NCI-H520 cells; gefitinib 0.001 μM) of the same compound?
A: −3.29%

Q: What about the “change in the viability” value (NCI-H520 cells; gefitinib 0.01 μM) of the same compound?
A: −7.47%

Q: What about the “change in the viability” value (NCI-H520 cells; gefitinib 0.1 μM) of the same compound?
A: −17.73%

Q: What about the “change in the viability” value (NCI-H520 cells; gefitinib 1 μM) of the same compound?
A: −29.55%

Q: What about the “change in the viability” value (NCI-H520 cells; gefitinib 5 μM) of the same compound?
A: −53.53%

Q: And the “change in the viability” value (NCI-H520 cells; gefitinib 10 μM)?
A: −62.71%

Q: And the “change in the viability” value (NCI-H520 cells; gefitinib 50 μM)?
A: −71.11%

Q: And the “change in peritoneal NK cell activity” value [4]?
A: −4.12%

Q: What about the “change in splenic NK cell activity” value [4] of the same compound?
A: −6.16%

Q: What about the “Mortality, Days of treatment Periods (Day 0~27)” value ([5]; male, ICR (CrljOri:CD1[ICR])) of the same compound?
A: 0

Q: What about the “Clinical signs: Any abnormal signs” value [5, 12] of the same compound?
A: 0/7 (0%)

Q: And the “Clinical signs: Normal appearance” value [5, 12]?
A: 7/7 (100%)

Q: What about the “Mortality, At termination (at end of 28 days of administration)” value [5, 12] of the same compound?
A: 0

Q: And the “Mortality, Total” value [5, 12]?
A: 0/7 (0%)

Q: And the “Body weight gain, Day 0~Day 14” value [5]?
A: 6.53 ± 0.65

Q: And the “Body weight gain, Day 0~Day 28” value [5]?
A: 3.26 ± 0.57b

Q: What about the “Body weight gain, Day 14~Day 27” value [5] of the same compound?
A: 1.80 ± 0.62

Q: And the “Splenic Interleukin-1β content” value [6, 13]?
A: 7.82 ± 2.32 days

Q: And the “Splenic Interleukin-10 content” value [6, 13]?
A: 23.39 ± 12.60a

Q: And the “change in content of splenic IL-1β” value [6, 14]?
A: −3.08%

Q: What about the “change in content of splenic IL-10” value [6, 14] of the same compound?
A: −7.27%

Q: And the “change in content of splenic TNF-α” value [6, 14]?
A: −4.79%

Q: And the “Tumor volume First administration [A]” value ([7]; NCI-H520 xenograft nude mice, baseline)?
A: 459.88 ± 129.50 mm^3

Q: What about the “Tumor mass absolute weight” value [7, 13] of the same compound?
A: 1.321 ± 0.191 g

Q: And the “Tumor volume Sacrifice [B]” value [7, 13]?
A: 2486.04 ± 480.24a mm^3

Q: And the “change of the amount of change in tumor volume” value ([7]; vs tumor xenograft group, 5 weeks)?
A: −68.18%

Q: What about the “change in tumor absolute weight” value ([7]; vs tumor xenograft group, 35 days) of the same compound?
A: −47.72%
